From publication PMC12647017, “Discovery and optimization of a synthetic small protein domain targeting antibodies” (Frontiers in Bioengineering and Biotechnology, 2025)

System: human polyclonal IgG
Assay: Screening ELISA of phage display clones (crude extracts) against human polyclonal IgG
Format: binding
Parameters: key: High: high binders (Abs>0.4); Moderate: moderate signal
Conditions: crude extract of clones from 6th panning round, 1 µg/well human polyclonal IgG, blocked 3% (w/v) BSA in TBS, 50 µL extract 1 h at 37 °C, Anti-HA tag-HRP, ABTS, Abs405nm
Description: The biopanning of the previously developed WWp5_4 library ([Dias et al., 2025]) (Figures 1A,B) against human polyclonal IgG was performed for six rounds, after which an enrichment of ligands was observed (Supplementary Table S3). To assess the binding of each clone to the target, 192 clones were selected and expressed at small scale in 96-deep well blocks, following conditions previously optimised. After cell lysis, the supernatant containing the soluble fraction was used for ELISA assays. The results in Figure 1C illustrate the difference in the absorbance profile of the screened ligands. […] From these 26, only 21 presented high quality for reliable sequencing results. The sequence alignment and diversity of the different binders is represented in Table 1 and Figure 2A.
Small Scale Protein Expression and screening ELISA: From the output of the 6th round of panning, 94 isolated colonies were peaked into two sterile 96-well deep well 2mL round-bottom plates and grown with 200 µL of LB with ampicillin, 125 rpm, 37 °C, overnight (master plates). The following day, to one of the master plates was added glycerol to achieve a final concentration of 15% and was stored at -80 °C. Regarding the other master plate, 12 µL of this culture was added to another sterile 96-well deep well 2 mL round-bottom plate with 1.2 mL of LB with ampicillin and was grown at 37 °C, 125 rpm until OD600nm achieved 0.5-0.6. After this, protein expression was induced with 1 mM IPTG and continued incubation with the previous conditions. The following day, the cultures were sonicated for 30 minutes in ice-water bath and centrifuged for 10 minutes at 2500 x g. The supernatant was collected and transferred to a new microplate to be used in the screening for the ELISA (crude extract). For the ELISA, three microplates were tested: A) Sample binding plate; B) Negative control plate; C) Expression plate. On the sample binding plate, 1 µg/well of human polyclonal IgG was immobilized on the plate at 4 °C, overnight. On the following day, the target was removed, and the wells were washed once with TBS, then the plate was blocked with 300 µL 3% (w/v) BSA in TBS for 1 hour at 37 °C. After this, the wells were washed once with TBS, and were then incubated with 50 µL of crude extract (containing WW domain) for 1 hour at 37 °C. The plate was then washed 5 times with TBS-T, and then incubated with 100 µL of the Anti-HA tag-HRP conjugated antibody (diluted 1:1000) for 1 hour at 37 °C. The plate was then washed once with TBS-T and 4 times with TBS, and then incubated with the substrate ABTS for 1 hour at the dark at 37 °C. The results were then analysed in a microplate reader (TECAN) and the Abs405nm was then measured.
For the Negative control plate the protocol was the same as for the Binding microplate, except for the target immobilization. Instead of having IgG, only coating buffer was added. This plate allows to detect clones that unspecific bind to BSA present in the Blocking Buffer. For the Expression plate the protocol started at the step of incubation with the crude extract, and from there the steps were the same as the Binding microplate. This plate allows to detect clone’s basal expression level.

## SMGLPPGWDEYKT SLSRP GKTYYYNH EEPS KTSTWTDPRMSS [Clone G3, WW domain clone against human IgG, loops SLSRP / EEPS]
  ELISA signal: High (high binders (Abs>0.4))

## SMGLPPGWDEYKT TMAWL GKTYYYNH YTPG KTSTWTDPRMSS [Clone A5, WW domain clone against human IgG, loops TMAWL / YTPG]
  ELISA signal: High (high binders (Abs>0.4))

## SMGLPPGWDEYKT TLAGL GKTYYYNH YTPG KTSTWTDPRMSS [Clone G9, WW domain clone against human IgG, loops TLAGL / YTPG]
  ELISA signal: Moderate

## SMGLPPGWDEYKT FEIVM GKTYYYNH MHTD KTSTWTDPRMSS [Clone D10, WW domain clone against human IgG, loops FEIVM / MHTD]
  ELISA signal: Moderate

## SMGLPPGWDEYKT ALSRW GKTYYYNH DWNP KTSTWTDPRMSS [Clone H7, WW domain clone against human IgG, loops ALSRW / DWNP]
  ELISA signal: Moderate

## SMGLPPGWDEYKT AFSRA GKTYYYNH YLEE KTSTWTDPRMSS [Clone G5, WW domain clone against human IgG, loops AFSRA / YLEE]
  ELISA signal: High (high binders (Abs>0.4))

## SMGLPPGWDEYKT VLYSG GKTYYYNH IMSL KTSTWTDPRMSS [Clone H6, WW domain clone against human IgG, loops VLYSG / IMSL]
  ELISA signal: High (high binders (Abs>0.4))

## SMGLLPGWDEYKT WVVDV GKTYYYNH FKVS KTSTWTDPRMSS [Clone H8, WW domain clone against human IgG, loops WVVDV / FKVS]
  ELISA signal: Moderate

## SMGLPPGWDEYKT SMALL GKTYYYNH YTPG KTSTWTDPRMSS [Clone C8, WW domain clone against human IgG, loops SMALL / YTPG]
  ELISA signal: Moderate

## SMGLPPGWDEYKT YRVMV GKTYYYNH LYRL KTSTWTDPRMSS [Clone H3, WW domain clone against human IgG, loops YRVMV / LYRL]
  ELISA signal: High (high binders (Abs>0.4))
